According to PMC6958329, “New ^55Co-labeled Albumin-Binding Folate Derivatives as Potential PET Agents for Folate Receptor Imaging” (Pharmaceuticals, 2019):
Where “and” joins values, the source holds several entries; their conditions need not be identical. Identical values can stand only once. Each block holds one compound with its values, some of them ahead of it.

System: KB tumor bearing mice
Experiment: In vivo biodistribution in KB tumor bearing mice
Details: for Biodistribution, Tumor: KB tumor; for Biodistribution, Tumor / Biodistribution, Blood / Biodistribution, Bone / Biodistribution, Brain / Biodistribution, Fat / Biodistribution, Heart / Biodistribution, Intestine / Biodistribution, Kidney / Biodistribution, Liver / Biodistribution, Lungs / Biodistribution, Muscle / Biodistribution, Pancreas / Biodistribution, Skin / Biodistribution, Spleen / Biodistribution, Stomach: n = 4
Experimental: The in vivo behavior of each ^55Co-labeled folate was evaluated in KB-tumor bearing mice via biodistribution studies and PET/CT imaging. The biodistribution data are presented in Table 3 and Table 4, and are reported as the percent of injected activity per gram of tissue (% IA/g). Statistically significant differences in renal uptake between the two ^55Co-labeled compounds were observed. At 4 h post-injection, the radiofolates had uptake values in the kidneys of 36% ± 7% IA/g for [^55Co]Co-cm10 and 53% ± 12% IA/g for [^55Co]Co-rf42. […] Lower renal uptake for [^55Co]Co-cm10 may in part be due to slightly higher lipophilicity (supported by its larger molecular weight and a longer HPLC-retention time) in comparison to [^55Co]Co-rf42. […] Despite the differences in blood retention, tumor uptake for both radiofolates was similar with values of 17% ± 2% IA/g for [^55Co]Co-cm10 and 17% ± 4% IA/g for [^55Co]Co-rf42 at 4 h post-injection. […] The PET/CT images (presented as maximal intensity projections) confirm the biodistribution findings, highlighting the kidneys and tumors as the tissues with the highest activity uptake (Figure 5).
All animal studies were performed using a protocol approved by the Institutional Animal Care and Use Committee at the University of Alabama at Birmingham and were in compliance with national animal welfare policies and guidelines. Female athymic nude mice (Charles River, Wilmington, MA, USA), age 5 weeks, were implanted with KB cells via subcutaneous injection of 5 × 10^6 cells in 100 μL of PBS in the right shoulder. Tumors were allowed to grow for 12 days, during which time mice were fed Teklad Folic Acid Deficient Diet (Envigo, Huntingdon, United Kingdom).
Biodistribution and imaging studies for [^55Co]Co-cm10 and [^55Co]Co-rf42 were performed at 4 h and 24 h post-injection on groups of four mice. An additional cohort of mice was co-injected with a blocking dose of folic acid (100 μg), and biodistribution was performed at 4 h post-injection. At 2 h, mice were induced using 3% isoflurane and a 50 μL blood sample was taken retro-orbitally to monitor blood activity at an early time point.
The radiofolates were prepared as described with final molar activities of 835.5 MBq/μmol (22.6 mCi/μmol) for [^55Co]Co-cm10 and 957.6 MBq/μmol (25.9 mCi/μmol) for [^55Co]Co-rf42 in 60 μL reaction volume. Injections (100 µL) were prepared by dilution of the radiofolates in sterile saline (pH = 7). The final [^55Co]Co-cm10 injection contained 1,924 kBq (52 μCi) and 2.3 nmol cm10 and the final [^55Co]Co-rf42 injection contained 2,479 kBq […] and 2.4 nmol rf42. Blocking doses contained an additional 100 µg of folic acid and were prepared by diluting the radiofolates with 1 μg/μL folic acid in sterile saline (pH adjusted to 7). Mice were euthanized humanely by cervical dislocation following anaesthetization with 3% isoflurane, and their organs were collected, weighed and counted using an automatic gamma counter.

[1] = 4 h, co-administration of 100 µg folic acid blocking dose

Biodistribution, Tumor [1]: 8 ± 4 % IA/g | Biodistribution, Blood [1]: 17 ± 3 % IA/g | Biodistribution, Bone [1]: 2.2 ± 0.8 % IA/g | Biodistribution, Brain [1]: 0.6 ± 0.2 % IA/g | Biodistribution, Fat [1]: 4 ± 1 % IA/g | Biodistribution, Heart [1]: 4.2 ± 0.7 % IA/g | Biodistribution, Intestine [1]: 2.3 ± 0.4 % IA/g | Biodistribution, Kidney [1]: 16 ± 4 % IA/g | Biodistribution, Liver [1]: 3.5 ± 0.5 % IA/g | Biodistribution, Lungs [1]: 7 ± 3 % IA/g | Biodistribution, Muscle [1]: 2.1 ± 0.7 % IA/g | Biodistribution, Pancreas [1]: 2.4 ± 0.7 % IA/g | Biodistribution, Skin [1]: 5 ± 1 % IA/g | Biodistribution, Spleen [1]: 2.2 ± 0.4 % IA/g | Biodistribution, Stomach [1]: 1.5 ± 0.1 % IA/g | Biodistribution, Blood (4 h post-injection): 14 % IA/g and 13.8 ± 0.8 % IA/g | Biodistribution, Bone (4 h post-injection): 1.8 ± 0.6 % IA/g | Biodistribution, Brain (4 h post-injection): 0.8 ± 0.1 % IA/g | Biodistribution, Fat (4 h post-injection): 5 ± 1 % IA/g | Biodistribution, Heart (4 h post-injection): 4.7 ± 0.6 % IA/g | Biodistribution, Intestine (4 h post-injection): 1.9 ± 0.3 % IA/g | Biodistribution, Liver (4 h post-injection): 3.7 ± 0.6 % IA/g | Biodistribution, Lungs (4 h post-injection): 5.4 ± 0.6 % IA/g | Biodistribution, Muscle (4 h post-injection): 2.4 ± 0.9 % IA/g | Biodistribution, Pancreas (4 h post-injection): 2.4 ± 0.7 % IA/g | Biodistribution, Skin (4 h post-injection): 6 ± 2 % IA/g | Biodistribution, Spleen (4 h post-injection): 2.0 ± 0.4 % IA/g | Biodistribution, Stomach (4 h post-injection): 0.8 ± 0.2 % IA/g | Biodistribution, Blood (24 h post-injection): 2.6 ± 0.3 % IA/g | Biodistribution, Bone (24 h post-injection): 0.8 ± 0.2 % IA/g | Biodistribution, Brain (24 h post-injection): 0.45 ± 0.08 % IA/g | Biodistribution, Fat (24 h post-injection): 3 ± 2 % IA/g | Biodistribution, Heart (24 h post-injection): 1.7 ± 0.2 % IA/g | Biodistribution, Intestine (24 h post-injection): 0.92 ± 0.08 % IA/g | Biodistribution, Kidney (24 h post-injection): 30 ± 2 % IA/g | Biodistribution, Liver (24 h post-injection): 1.9 ± 0.3 % IA/g | Biodistribution, Lungs (24 h post-injection): 1.9 ± 0.3 % IA/g | Biodistribution, Muscle (24 h post-injection): 1.3 ± 0.3 % IA/g | Biodistribution, Pancreas (24 h post-injection): 1.4 ± 0.2 % IA/g | Biodistribution, Skin (24 h post-injection): 7 ± 3 % IA/g | Biodistribution, Spleen (24 h post-injection): 1.0 ± 0.1 % IA/g | Biodistribution, Stomach (24 h post-injection): 0.34 ± 0.09 % IA/g
SMILES: Nc1nc2ncc(CNc3ccc(C(=O)N[C@@H](CCC(=O)NC(CCCCNC(=O)CN4CCN(CC(=O)O)CCN(CC(=O)O)CCN(CC(=O)O)CC4)C(=O)NC(CCCCNC(=O)CCCc4ccc(I)cc4)C(=O)O)C(=O)O)cc3)nc2c(=O)[nH]1.[55Co] (stereo partly shown) [[^55Co]Co-cm10]

Biodistribution, Tumor [1]: 7 ± 2 % IA/g | Biodistribution, Blood [1]: 15 ± 2 % IA/g | Biodistribution, Bone [1]: 1.7 ± 0.5 % IA/g | Biodistribution, Brain [1]: 0.5 ± 0.1 % IA/g | Biodistribution, Fat [1]: 2.7 ± 0.6 % IA/g | Biodistribution, Heart [1]: 4 ± 1 % IA/g | Biodistribution, Intestine [1]: 2.2 ± 0.3 % IA/g | Biodistribution, Kidney [1]: 12 ± 4 % IA/g | Biodistribution, Liver [1]: 4 ± 1 % IA/g | Biodistribution, Lungs [1]: 5.6 ± 0.3 % IA/g | Biodistribution, Muscle [1]: 1.5 ± 0.3 % IA/g | Biodistribution, Pancreas [1]: 2.2 ± 0.2 % IA/g | Biodistribution, Skin [1]: 3.5 ± 0.8 % IA/g | Biodistribution, Spleen [1]: 2.1 ± 0.3 % IA/g | Biodistribution, Stomach [1]: 1.1 ± 0.5 % IA/g | Biodistribution, Blood (4 h post-injection): 8 % IA/g and 8 ± 3 % IA/g | Biodistribution, Bone (4 h post-injection): 1.3 ± 0.2 % IA/g | Biodistribution, Brain (4 h post-injection): 0.7 ± 0.1 % IA/g | Biodistribution, Fat (4 h post-injection): 3.2 ± 0.9 % IA/g | Biodistribution, Heart (4 h post-injection): 2.9 ± 0.4 % IA/g | Biodistribution, Intestine (4 h post-injection): 2.2 ± 0.5 % IA/g | Biodistribution, Liver (4 h post-injection): 3.8 ± 0.6 % IA/g | Biodistribution, Lungs (4 h post-injection): 4 ± 1 % IA/g | Biodistribution, Muscle (4 h post-injection): 1.6 ± 0.4 % IA/g | Biodistribution, Pancreas (4 h post-injection): 2.4 ± 0.5 % IA/g | Biodistribution, Skin (4 h post-injection): 8 ± 1 % IA/g | Biodistribution, Spleen (4 h post-injection): 1.5 ± 0.3 % IA/g | Biodistribution, Stomach (4 h post-injection): 0.8 ± 0.4 % IA/g | Biodistribution, Blood (24 h post-injection): 1.0 ± 0.4 % IA/g | Biodistribution, Bone (24 h post-injection): 0.6 ± 0.2 % IA/g | Biodistribution, Brain (24 h post-injection): 0.4 ± 0.1 % IA/g | Biodistribution, Fat (24 h post-injection): 2.7 ± 0.2 % IA/g | Biodistribution, Heart (24 h post-injection): 2.0 ± 0.4 % IA/g | Biodistribution, Intestine (24 h post-injection): 0.8 ± 0.2 % IA/g | Biodistribution, Kidney (24 h post-injection): 46 ± 14 % IA/g | Biodistribution, Liver (24 h post-injection): 2.9 ± 0.5 % IA/g | Biodistribution, Lungs (24 h post-injection): 1.5 ± 0.4 % IA/g | Biodistribution, Muscle (24 h post-injection): 1.2 ± 0.6 % IA/g | Biodistribution, Pancreas (24 h post-injection): 1.9 ± 0.3 % IA/g | Biodistribution, Skin (24 h post-injection): 6 ± 2 % IA/g | Biodistribution, Spleen (24 h post-injection): 0.6 ± 0.2 % IA/g | Biodistribution, Stomach (24 h post-injection): 0.5 ± 0.2 % IA/g | tumor-to-kidney ratio (compared with [^64Cu]Cu-rf42 and [^68Ga]Ga-rf42, Figure 6): lowest
SMILES: Nc1nc2ncc(CNc3ccc(C(=O)N[C@@H](CCC(=O)NC(CCCCNC(=O)CCC(C(=O)O)N4CCN(CC(=O)O)CCN(CC(=O)O)CC4)C(=O)NC(CCCCNC(=O)CCCc4ccc(I)cc4)C(=O)O)C(=O)O)cc3)nc2c(=O)[nH]1.[55Co] (stereo partly shown) [[^55Co]Co-rf42]
